{"source": "patent US5126265A", "about": "“AB-021 antibiotics and process for producing them” (Presidenza del Consiglio dei Ministri-Ufficio del Ministro …, priority 1988, dated 1992)"}
{"system": "Streptomyces sp. NCIB 40068", "test": "Resistance of the producing strain (Table B)", "type": "cell-based", "conditions": "producing strain Streptomyces sp. NCIB 40068", "units": {"Resistance to (antimicrobial)": "ppm"}}
{"compound": "CN(C)C1C(=O)C(C(N)=O)=C(O)C2(O)C(=O)C3=C(O)c4c(O)cccc4C(C)(O)C3C(O)C12", "note": "(stereo not drawn) [Oxytetracycline]", "Resistance to (antimicrobial)": 8}
{"compound": "CO[C@H]1/C=C/O[C@@]2(C)Oc3c(C)c(O)c4c(O)c(c(/C=N/N5CCN(C)CC5)c(O)c4c3C2=O)NC(=O)/C(C)=C\\C=C\\[C@H](C)[C@H](O)[C@@H](C)[C@@H](O)[C@@H](C)[C@H](OC(C)=O)[C@@H]1C", "note": "[Rifampicin]", "Resistance to (antimicrobial)": 2}
{"compound": "Lysozyme", "Resistance to (antimicrobial)": 10}
